# Patent US20060134119A1, “Drugs containing galectin 9” (priority 2003, published 2006)
# Residues, ends and D or L forms follow the SMILES beside them. *: point of attachment. Cbz = O=C(OCc1ccccc1)*; CH2F = FC*
# Columns and labels:
# MOLT-4 cells [1] = assay: Ca2+ influx, Fluo-3 assay by flow cytometry; format: cell-based, human; details: FIG. 8; for effect on calcium influx induced by Gal-9: 30 mM lactose or sucrose
# Experimental: Cells (approx. 10^6 to 10^7 cells/mL) in the culture medium (10% FCS, RPMI-1640 containing 10 mM HEPES, pH 7.2) were incubated with fluo-3 AM (final concentration 10 μM, Dojindo, Kumamoto, Japan), an intracellular calcium indicator, at 37° C. for 30 min (Sharp, B. M. et al., Proc. Natl. Acad. Sci. USA, 93: 8294 (1996)). Then the cells were washed and resuspended in the culture medium (final concentration, approx. 2×10^5 cells/mL per sample). Intracellular calcium level was measured by flow cytometry. The resting cells were stimulated at 1 min after their fluorescence intensities were measured.
# Next, sequential measurement was restarted until different stimuli were applied. In lactose inhibition assay, cells were stimulated in the presence of 30 mM lactose. Sucrose (30 mM) was used as a control (Sano, H. et al., J. Imnunol., 165: 2156 (2000)). A23187 (calcium ionophore, final concentration 5 ng/mL, Wako, Osaka, Japan) was used as a positive control.
# Jurkat T cells = details: 16 hr incubation with 1 mM galectin-9, PI, FACS
# Experimental: (§1) Cytotoxicities in Jurkat T cells, K-562 leukemic cells, and normal lymphocytes were measured by flow cytometry analysis using PI. That is, PI invades into the damaged target cells when PI is added for the last 15 min of 16 hr incubation with 1 mM galectin-9. Fluorescence generated by PI is measured by FACS. Untreated cells were used as a negative control group, formalin-fixed cells as a 100% dead cell group, and H2O2 (hydrogen peroxide solution)-treated cells as a positive control group, respectively.
# K-562 leukemic cells = details: 16 hr incubation with 1 mM galectin-9, PI, FACS
# Experimental: as §1
# normal lymphocytes = details: Normal Lymphocyte; 16 hr incubation with 1 mM galectin-9; PI, FACS
# Experimental: as §1
# MOLT-4 cells [2] = assay: Inhibition of Gal-9- or other stimulus-induced apoptosis by lactose, caspase and calpain inhibitors; format: cell-based, human; details: for inhibition of TNF-α-induced apoptosis / inhibition of anti-Fas Ab-induced apoptosis / inhibition of C2 ceramide-induced apoptosis / inhibition of DEX-induced apoptosis: caspase inhibitors; for inhibition of TNF-α-induced apoptosis / inhibition of anti-Fas Ab-induced apoptosis / inhibition of C2 ceramide-induced apoptosis / inhibition of DEX-induced apoptosis / inhibition of Gal-9-induced apoptosis: FIG. 5; for inhibition of Gal-9-induced apoptosis: inhibitor at 10 μM, added 1 hr before Gal-9 stimulation; for effect on pro-apoptosis activity by Gal-9: 30 mM lactose or sucrose, FIG. 2
# Experimental: MOLT-4 (T cell), Jurkat (T cell), BALL-1 (B cell), THP-1 (acute monocytic leukemia derived cell), and HL60 (acute promyelotic leukemia derived cell) cells were obtained from American Type Culture Collection (ATCC). All the cell lines were maintained in an RPMI-1640 medium (Sigma, St. Louis, US) supplemented with 10% FCS in 5% Co2 at 37° C. Lactose (30 mM) was added to the culture medium to inhibit Gal-9 activity. The same concentration of sucrose was used as a control. Cells were incubated with Gal-9 in the presence of Z-VAD-FMK (pan-caspase inhibitor), Z-YVAD-FMK (caspase-1 inhibitor), Z-IETD-FMK (caspase-8 inhibitor), Z-LEHD-FMK (caspase-9 inhibitor), Z-ABVD-FMK (caspase-lo inhibitor), or Z-LLY-FMK (calpain inhibitor) (BioVision, CA, US), at 10 μM, and the participation of caspase or calpain in the Gal-9-induced apoptosis was examined. Z-FA-FMK (BioVision, CA, US) was used as a control (Vu C. C. et al., J. Biol. Chem., 276: 37602 (2001) and Sweeney E. A. et al., FEBs Lett., 425: 61 (1998)). Each inhibitor was added 1 hr before Gal-9 stimulation. The following agents were purchased from suppliers below: DEX (BioVision, CA, US), anti-Fas Ab (clone CH-11, MBL), TNFα (Genzyme, Cambridge, Mass., US), C2 ceramide (SIGMA), and etoposide (Biovision).
# MOLT-4 cells [3] = assay: as above; format: cell-based, human; details: inhibitor at different concentrations; FIG. 6, FIG. 7
# CD4+ T cells = assay: Apoptosis induction in peripheral blood CD4+ T cells, resting or anti-CD3 Ab-activated; format: cell-based, human; details: galectin (+), 1 μM rGal-9
# Experimental: (§2) To prepare a well plate coated with anti-CD3 Ab, 24 well palates were incubated with TBS solution (pH 8.0) containing 3 μg/mL anti-CD3 Ab (Inmunotech, Marseille, France) per well at 4° C. overnight, and each well was washed with PBS after removing anti-CD3 Ab solution.
# (§3) Mononuclear leukocyte fractions were isolated from heparinized blood using HISTOPAQUE (Registered trademark, SIGMA). CD4-Positive Isolation Kit (DYNAL, Oslo, Norway) was used for isolation of CD4+ T cells and Dynabeads M-450 CD8 (Registered trademark, DYNAL, Oslo, Norway) for isolation of CD8+ T cells, respectively, according to the manufacturer's instructions.
# (§4) To activate T cells, CD4+ or CD8+ cells at 1×10^6 cells/mL in an RPMI-1640 medium containing 10% FCS were incubated on the plate coated with anti-CD3 Ab for 20 to 24 hr at 37° C. in a 5% CO2 incubator, and incubated with rGal-9 [(His)6-Gal-9(S)] at 37° C. in a 5% CO2 incubator. Then apoptosis assay was conducted as described in (c). That is, cells were incubated with 50 μg/mL PI (SIGMA) at 37° C. for 10 min in the dark. Stained cells were analyzed by flow cytometry (Sandstrom, K. et al., J Immunol Methods, 240: 55 (2000) and Zhang L. et al., Cancer Lett, 142: 129 (1999)).
# (§5) Apoptosis assay was also conducted for non-activated (resting) T cells as described above after incubating them with rGal-9 [(His)6-Gal-9(S)] at 37° C. in a 5% Co2 incubator.
# (§6) For comparison, galectin-1 and -3 treated cells were analyzed.
# (§7) Next, apoptosis induction by Gal-9 in human peripheral blood T cells was examined. T cells were separated into CD4+ and CD8+ T cells followed by incubation in the presence or absence of anti-CD3 Ab. Resting T cells and anti-CD3 Ab-activated T cells were incubated with 1 μM rGal-9.
# CD8+ T cells = assay: Apoptosis induction in peripheral blood CD8+ T cells, resting or anti-CD3 Ab-activated; format: cell-based, human; details: galectin (+), 1 μM rGal-9
# Experimental: as §2, §3, §4, §5, §6, §7
# MM-RU = assay: Induction of cell aggregation in MM-RU; format: cell-based, human; details: controls, at the dose of at least 1 μM
# Experimental: Recombinant galectin-9 prepared via gene transfer into E. coli was added to MM-RU exogenously, and the efficacy of galectin-9 was then examined. As a result, galectin-9 induced aggregation of MM-RU at the concentration of 0.1 μM or higher. In addition, the galectin-9 efficacy was concentration-dependent, and significant between 0.3-1.0 μM.
# CD8 T Cell = assay: Apoptosis induction in non-activated normal CD8 T cells (Table 4); format: cell-based; details: 1 μM galectin-9, 1 μM galectin-3
# Experimental: (§8) For example, measurements of apoptosis induction in the presence of 1 μM galectin-9 are as shown in Table 4 below (also 1 μM for galectin-3 in Table 4).
# CD4 T Cell = assay: Apoptosis induction in non-activated normal CD4 T cells (Table 4); format: cell-based; details: 1 μM galectin-9, 1 μM galectin-3
# Experimental: as §8
# [4] = CD3 (+) cells activated on anti-CD3 Ab-coated plates
# [5] = CD3 (−) untreated resting cells
compound,measurement,setting,value
CNc1ccc2oc(C[C@H]3O[C@@]4(CC[C@H]3C)O[C@H]([C@H](C)C(=O)c3ccc[nH]3)[C@H](C)C[C@H]4C)nc2c1C(=O)O [A23187],calcium influx,"MOLT-4 cells [1]; Fluo-3 assay, A23187 final concentration 5 ng/mL",significantly induced
"OO [H2O2, hydrogen peroxide solution, reference compound]","cytotoxicity, 16 hours",Jurkat T cells,97.7
same,"cytotoxicity, 16 hours",K-562 leukemic cells,99.2
same,"cytotoxicity, 16 hours",normal lymphocytes,96.8
COC(=O)CC[C@H](NC(=O)[C@H](C)NC(=O)OCc1ccccc1)C(=O)N[C@H](C(=O)N[C@@H](CC(=O)OC)C(=O)CF)C(C)C [Z-AEVD-FMK] (Cbz-AE(OMe)VD(OMe)-CH2F),inhibition of TNF-α-induced apoptosis,MOLT-4 cells [2],inhibited
same,inhibition of anti-Fas Ab-induced apoptosis,MOLT-4 cells [2],inhibited
CC[C@H](C)[C@H](NC(=O)OCc1ccccc1)C(=O)N[C@@H](CCC(=O)OC)C(=O)N[C@H](C(=O)N[C@@H](CC(=O)OC)C(=O)CF)[C@@H](C)O [Z-IETD-FMK] (Cbz-IE(OMe)TD(OMe)-CH2F),inhibition of TNF-α-induced apoptosis,MOLT-4 cells [2],inhibited
same,inhibition of anti-Fas Ab-induced apoptosis,MOLT-4 cells [2],inhibited
COC(=O)CC[C@H](NC(=O)[C@H](CC(C)C)NC(=O)OCc1ccccc1)C(=O)N[C@@H](Cc1cnc[nH]1)C(=O)N[C@@H](CC(=O)OC)C(=O)CF [Z-LEHD-FMK] (Cbz-LE(OMe)HD(OMe)-CH2F),inhibition of C2 ceramide-induced apoptosis,MOLT-4 cells [2],inhibited
CC(C)CC(NC(=O)OCc1ccccc1)C(=O)NC(CC(C)C)C(=O)NC(Cc1ccc(O)cc1)C(=O)CF (stereo not drawn) [Z-LLY-FMK] (Cbz-Leu-Leu-Tyr-CH2F; configuration not given here),"inhibition of Gal-9-induced apoptosis, dose dependence",MOLT-4 cells [3],in a dose dependent manner
COC(=O)C[C@H](NC(=O)[C@H](C)NC(=O)[C@@H](NC(=O)OCc1ccccc1)C(C)C)C(=O)CF [Z-VAD-FMK] (Cbz-Val-Ala-Asp(OMe)-CH2F),"inhibition of Gal-9-induced apoptosis, dose dependence",MOLT-4 cells [3],in a dose-dependent manner
same,inhibition of C2 ceramide-induced apoptosis,MOLT-4 cells [2],inhibition
same,inhibition of DEX-induced apoptosis,MOLT-4 cells [2],inhibition
same,inhibition of TNF-α-induced apoptosis,MOLT-4 cells [2],inhibition
same,inhibition of anti-Fas Ab-induced apoptosis,MOLT-4 cells [2],inhibition
same,inhibition of Gal-9-induced apoptosis,MOLT-4 cells [2],almost completely inhibited
COC(=O)C[C@H](NC(=O)[C@H](C)NC(=O)[C@@H](NC(=O)[C@H](Cc1ccc(O)cc1)NC(=O)OCc1ccccc1)C(C)C)C(=O)CF [Z-YVAD-FMK],"inhibition of Gal-9-induced apoptosis, dose dependence",MOLT-4 cells [3],in a dose-dependent manner
same,inhibition of DEX-induced apoptosis,MOLT-4 cells [2],inhibited
same,inhibition of Gal-9-induced apoptosis,MOLT-4 cells [2],inhibited
"OC[C@H]1O[C@@H](O[C@H]2[C@H](O)[C@@H](O)C(O)O[C@@H]2CO)[C@H](O)[C@@H](O)[C@H]1O (some centres unmarked) [lactose, Lactose]",effect on pro-apoptosis activity by Gal-9,MOLT-4 cells [2],almost completely inhibited
same,effect on calcium influx induced by Gal-9,MOLT-4 cells [1],inhibited
OC[C@H]1O[C@@](CO)(O[C@H]2O[C@H](CO)[C@@H](O)[C@H](O)[C@H]2O)[C@@H](O)[C@@H]1O [sucrose],effect on pro-apoptosis activity by Gal-9,MOLT-4 cells [2],not
same,effect on calcium influx induced by Gal-9,MOLT-4 cells [1],not inhibited
Galectin-1: galectin used for comparison / control,"apoptosis induction, CD4",CD4+ T cells; [4],13.9
same,"apoptosis induction, CD4",CD4+ T cells; [5],8.1
same,"apoptosis induction, CD8",CD8+ T cells; [4],19
same,"apoptosis induction, CD8",CD8+ T cells; [5],9.6
same,aggregation,MM-RU,No obvious aggregation
Galectin-3: galectin used for comparison / control,"apoptosis induction, CD8 T Cell Resting",CD8 T Cell,15.9
same,"apoptosis induction, CD4 T Cell Resting",CD4 T Cell,10.3
same,"apoptosis induction, CD4",CD4+ T cells; [4],15.7
same,"apoptosis induction, CD4",CD4+ T cells; [5],9.6
same,"apoptosis induction, CD8",CD8+ T cells; [4],20.9
same,"apoptosis induction, CD8",CD8+ T cells; [5],14.7
same,aggregation,MM-RU,No obvious aggregation
